For this assay, the target named is Zinc finger protein mex-5 (Caenorhabditis elegans) (UniProt Q9XUB2). The assay is described as follows: MEX-5 zinc finger-RNA interaction blockers – biochemical, fluorescence polarization, C. elegans, cherry-picked, round 3, dose response (AID 493250). The note with it: purified MEX-5-MBP, FITC-TCR2 RNA fluorescence polarization; for activity change, negative = inhibition: at 10 µM (top of the series).

The source made the active and inactive calls.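 How the source made its calls: active means signal decrease with fitted half-maximal dose at or below ten times the highest valid tested dose; inconclusive means poor fit, or flat fit at 30 to 70% inhibition; inactive means the rest.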

Chain of Zinc finger protein mex-5 (Caenorhabditis elegans) (Q9XUB2 whole entry, looked up): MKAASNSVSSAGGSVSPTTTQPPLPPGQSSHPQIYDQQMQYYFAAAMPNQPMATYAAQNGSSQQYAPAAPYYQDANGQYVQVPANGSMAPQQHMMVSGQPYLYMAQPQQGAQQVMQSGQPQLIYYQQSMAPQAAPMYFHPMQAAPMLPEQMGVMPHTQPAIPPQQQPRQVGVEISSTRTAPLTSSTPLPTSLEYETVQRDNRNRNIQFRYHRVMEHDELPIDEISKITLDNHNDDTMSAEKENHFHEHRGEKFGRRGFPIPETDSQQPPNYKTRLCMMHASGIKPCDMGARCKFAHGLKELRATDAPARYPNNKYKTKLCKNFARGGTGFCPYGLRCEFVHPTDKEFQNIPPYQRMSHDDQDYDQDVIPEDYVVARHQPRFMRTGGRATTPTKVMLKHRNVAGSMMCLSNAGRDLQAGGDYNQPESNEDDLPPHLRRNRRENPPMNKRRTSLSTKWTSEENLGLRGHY

As for `Cc1ccc(Nc2nc(-c3ccc(O)cc3O)cs2)nc1`, the “activity change, negative = inhibition” value is “inactive”.

As to `COc1ccc(/C=N/NC(=S)Nc2cccc(C(=O)O)c2)cc1`, the “activity change, negative = inhibition” value is “inactive”.

For the compound `Cc1cccc(C(=O)NNC(=O)c2csc(N3CCOCC3)n2)c1C`, the “activity change, negative = inhibition” value is “inactive”.

Turning to `Cc1cccc(-n2c(N)c(-c3nc4ccccc4n3C)c3nc4ccccc4nc32)c1`, the “activity change, negative = inhibition” value was “inactive”.

Turning to `CC1=Nc2ccc(C)cc2/C1=C/c1c(N)n2c(S(=O)(=O)C(C)C)nsc2nc1=O`, the “activity change, negative = inhibition” value was “inactive”.

As to `CN(N)N=Nc1nc2c([nH]1)c(=O)n(C)c(=O)n2C`, the “activity change, negative = inhibition” value is “inactive”.

As for `Cc1ccc(S(=O)(=O)c2cc3c(=O)n4cccc(C)c4nc3n(C3CCCCC3)c2=N)cc1`, the “activity change, negative = inhibition” value is “inactive”.

For `O=C(Nc1ccc(OCc2ccccc2)cc1)Nc1cccnc1`, the “activity change, negative = inhibition” value was “inactive”.

Turning to `COc1ccc(CCn2c(=N)c(C(=O)NCC3CCCO3)cc3c(=O)n4cccc(C)c4nc32)cc1` (stereo unspecified), the “activity change, negative = inhibition” value was “inactive”.

As to `O=C(NNC(=O)c1ccc(O)c(Cl)c1)c1cccc(S(=O)(=O)N2CCOCC2)c1`, the “activity change, negative = inhibition” value was “inactive”.

For `Cc1ccc(C(=O)N/C(=C\c2ccc(-c3ccccc3[N+](=O)[O-])o2)C(=O)NCCN(C)C)cc1`, the “activity change, negative = inhibition” value is “inactive”.

For `Nc1nc(Cl)nc2ccc(Br)cc12`, the AC50 is > 10000 nM (inactive).

As for `CCOC(=O)/C(=C/c1ccc(N2CCC(c3ccccc3)=N2)cc1)C(C)=O`, the AC50 was 2430 nM.

For `CCC(COC(C)=O)Nc1nc2c([nH]1)c(=O)n(C)c(=O)n2C` (stereo unspecified), the “activity change, negative = inhibition” value was “inactive”.

As to `COc1ccc(C(CC(=O)N2CCCC2)c2c(OC)cc(OC)c3ccc(=O)oc23)cc1` (stereo unspecified), the “activity change, negative = inhibition” value is “inactive”.

Consider `COc1cc2c(cc1O)CC1c3c(cc(O)c(OC)c3-2)CCN1C` (stereo unspecified), for which the “activity change, negative = inhibition” value is “inactive”.

In the case of `Cc1ccc(C(=O)NNc2ncnc3c2cnn3C)cc1`, the “activity change, negative = inhibition” value is “inactive”.

As to `O=C(CSc1nnc(COc2ccccc2)o1)Nc1nccs1`, the “activity change, negative = inhibition” value was “inactive”.

Regarding `CC(=O)c1cc(NC(=O)c2ccc(C)cc2)c(=O)oc1C`, the “activity change, negative = inhibition” value was “inactive”.

As for `Cc1cc(C)c[n+](-c2nc([O-])sc2C=O)c1`, the “activity change, negative = inhibition” value is “inactive”.

For the compound `O=C(Cc1csc(N2CCOCC2)n1)N/N=C/c1ccc(O)c(O)c1O`, the “activity change, negative = inhibition” value was “inactive”.

For the compound `C=CCc1cccc2cc(C(=O)NNC(=O)CC#N)c(=O)oc12`, the “activity change, negative = inhibition” value is “inactive”.

Consider `COC1=C(Nc2ccc(O)cc2)C(=O)c2ccccc2C1=O`, for which the “activity change, negative = inhibition” value was “inactive”.

Regarding `CCN(CC)c1ccc(N=Cc2c(O)n(-c3ccccc3C)c(=O)[nH]c2=O)cc1`, the “activity change, negative = inhibition” value is “inactive”.

On to `CCOc1ccccc1N=NC1C(=O)N(C(N)=S)N=C1C` (stereo unspecified), for which the “activity change, negative = inhibition” value is “inactive”.

Regarding `O=C1N=c2ccccc2=C1c1[nH]c(=S)[nH]c1O`, the “activity change, negative = inhibition” value is “inactive”.

Regarding `CCCC(=O)Nc1ccc(NC(=O)c2cccs2)cn1`, the “activity change, negative = inhibition” value is “inactive”.

In the case of `O=C(O)c1ccc(NCc2cccnc2)cc1`, the “activity change, negative = inhibition” value is “inactive”.

In the case of `CCc1ccc(/C=C2\Oc3cc(OS(C)(=O)=O)ccc3C2=O)cc1`, the “activity change, negative = inhibition” value was “inactive”.

Turning to `CCCCN(C(=O)c1ccc([N+](=O)[O-])o1)c1c(N)n(CCCC)c(=O)[nH]c1=O`, the “activity change, negative = inhibition” value is “inactive”.

For `N[C@@H](Cc1ccccc1)C(=O)N1CCC(C(=O)NCC(=O)Nc2ccc(F)cc2)CC1`, the “activity change, negative = inhibition” value is “inactive”.

For `O=C(O)CCSc1nc2ccccc2n1Cc1ccccc1`, the “activity change, negative = inhibition” value is “inactive”.

Turning to `CCOc1ccccc1C1NC(=O)NC(C)=C1C(=O)OCc1ccccc1` (stereo unspecified), the “activity change, negative = inhibition” value was “inactive”.

`Cc1ccc(N2C(=O)c3ccc(C(=O)O)cc3C2=O)cc1C`: the “activity change, negative = inhibition” value is “inactive”.

`CCOc1cc(/C=N/NC(=O)N/N=C/c2ccc(O)c(OCC)c2)ccc1O`: the “activity change, negative = inhibition” value was “inactive”.

Turning to `C#CCOCCOCCOCCNc1nc(N2CCN(C(=O)[C@H]([C@@H](C)CC)n3cc([C@@H](N)CO)nn3)CC2)nc(N2CCN(C(=O)[C@H]([C@@H](C)CC)n3cc([C@@H](N)CO)nn3)CC2)n1`, the “activity change, negative = inhibition” value was “inactive”.

Regarding `N#CC1=C(N)Oc2c(O)cc3ccccc3c2C1c1ccsc1` (stereo unspecified), the “activity change, negative = inhibition” value was “inactive”.

For the compound `COc1ccc(CC(=O)NNc2ncnc3c2cnn3C)cc1`, the “activity change, negative = inhibition” value is “inactive”.

With `CCc1nc2ccccc2c(=O)n1/N=C/c1ccc(OC)cc1`, the “activity change, negative = inhibition” value was “inactive”.

On to `Oc1ccc(/C=N/N2CCOCC2)c(O)c1O`, for which the “activity change, negative = inhibition” value is “inactive”.

For `CCN(CC)c1ccc(/C=N/N2CCN(c3ccccc3OC)CC2)cc1`, the “activity change, negative = inhibition” value is “inactive”.
